From DBAASP come the findings set out here.

In brackets after ≈: the same amount, converted by molar mass.

Some test systems named below: Bacillus subtilis 168; Pseudomonas aeruginosa; Staphylococcus aureus; Escherichia coli B; Bacillus subtilis; Acinetobacter baumannii; Escherichia coli; Staphylococcus aureus MR; Escherichia coli UB1005; Shigella dysenteriae.
Experiment in all cases: ≥ marks a high value that may be exact or a test limit, other limits are often not marked, values filed in µg/mL are converted to µM
In test [1] the test system is Micrococcus luteus ATCC 9341.
Test [2] has as its system Candida albicans ATCC 2002.
The subject of test [3] is Escherichia coli ATCC 25922.
Test [4] deals with Staphylococcus aureus ATCC 2592.
In test [5] the test system is Klebsiella pneumoniae ATCC 700603.
Test [6] deals with Staphylococcus aureus ATCC 25923.
Test [7] deals with Pseudomonas aeruginosa ATCC 9027.
The test system of test [8] is Staphylococcus aureus ATCC 29213.
Test [9] relates to Salmonella enterica subsp. enterica serovar Typhimurium C77-31.
Test [10] relates to Staphylococcus epidermidis ATCC 12228.

What is called MIC is the least concentration at which growth counts as inhibited. `CC(C)C[C@H](NC(=O)[C@H](C)N)C(=O)N1CCC[C@H]1C(=O)N[C@@H](Cc1c[nH]c2ccccc12)C(=O)N[C@@H](CCCCN)C(=O)N[C@@H](Cc1c[nH]c2ccccc12)C(=O)N1CCC[C@H]1C(=O)N[C@@H](Cc1c[nH]c2ccccc12)C(=O)N[C@@H](Cc1c[nH]c2ccccc12)C(=O)N1CCC[C@H]1C(=O)N[C@@H](Cc1c[nH]c2ccccc12)C(=O)N[C@@H](CCCN=C(N)N)C(=O)N[C@@H](CCCN=C(N)N)C(N)=O` [ALPWKWPWWPWRR] returned an MIC in test [1] of 0.4 µM (≈ 0.746 µg/mL).
Regarding `CC[C@H](C)[C@H](NC(=O)[C@H](CCCCN)NC(=O)[C@H](CCCCN)NC(=O)[C@H](Cc1c[nH]c2ccccc12)NC(=O)[C@H](CC(N)=O)NC(=O)[C@@H](N)C(C)C)C(=O)N[C@@H](CC(C)C)C(=O)N1CCC[C@H]1C(=O)N[C@@H](CCCCN)C(=O)N[C@H](C(=O)N[C@H](C(=O)N[C@@H](CCCCN)C(=O)N[C@H](C(=O)N[C@@H](C)C(=O)N[C@@H](CCCCN)C(N)=O)C(C)C)[C@@H](C)CC)[C@@H](C)CC` [VNWKKILPKIIKVAK], the minimal inhibitory concentration (MIC) in the test on Bacillus subtilis 168 worked out at 0.7 µM (≈ 1.24 µg/mL); against Pseudomonas aeruginosa, 100 µM (≈ 178 µg/mL); against Staphylococcus aureus, 80 µM (≈ 142 µg/mL); in the test on Escherichia coli B, 2.5 µM (≈ 4.44 µg/mL).
Consider `CC[C@H](C)[C@H](NC(=O)[C@H](CCC(N)=O)NC(=O)[C@H](CCCCN)NC(=O)CNC(=O)[C@H](CC(C)C)NC(=O)[C@H](CCC(N)=O)NC(=O)[C@@H]1CCCN1C(=O)[C@H](CC(C)C)NC(=O)[C@H](CCCCN)NC(=O)[C@H](C)NC(=O)[C@H](CCC(=O)O)NC(=O)[C@H](CCCCN)NC(=O)[C@@H](NC(=O)[C@H](CCSC)NC(=O)[C@@H](NC(=O)[C@@H](NC(=O)[C@@H](NC(=O)[C@@H](N)CO)[C@@H](C)CC)[C@@H](C)CC)[C@@H](C)O)[C@@H](C)O)C(=O)N[C@@H](C)C(=O)N[C@H]1CSSC[C@@H](C(=O)O)NC(=O)[C@H]([C@@H](C)O)NC(=O)[C@H](CC(N)=O)NC(=O)[C@H](Cc2ccc(O)cc2)NC(=O)[C@H](CC(C)C)NC(=O)[C@H](CCCN=C(N)N)NC1=O` [SIITMTKEAKLPQLGKQIACRLYNTC], for which the MIC is 20.5 µM (≈ 60 µg/mL) in test [2], no less than 41 µM against Bacillus subtilis, 41 µM (≈ 120 µg/mL) in test [3] and 10.3 µM (≈ 30 µg/mL) in [4].
Turning to `CC[C@H](C)[C@H](NC(=O)[C@H](Cc1ccccc1)NC(=O)[C@H](CO)NC(=O)[C@H](CCCCN)NC(=O)[C@H](CC(C)C)NC(=O)[C@H](CCCCN)NC(=O)[C@H](CCCCN)NC(=O)[C@H](CC(C)C)NC(=O)[C@@H](NC(=O)[C@@H](NC(=O)[C@@H](N)Cc1ccccc1)[C@@H](C)O)[C@@H](C)CC)C(=O)N[C@@H](CCCCN)C(=O)O` [FTILKKLKSFIK], the MIC is greater than 64 µM in [5]; no less than 64 µM against Acinetobacter baumannii; greater than 64 µM in test [6]; greater than 64 µM in test [3]; 32 µM (≈ 46.9 µg/mL) in test [7].
As for `CC[C@H](C)[C@H](N)C(=O)N[C@@H](CC(C)C)C(=O)N1CCC[C@H]1C(=O)N[C@@H](Cc1c[nH]c2ccccc12)C(=O)N[C@@H](CCCCN)C(=O)N[C@@H](Cc1c[nH]c2ccccc12)C(=O)N1CCC[C@H]1C(=O)N[C@@H](Cc1c[nH]c2ccccc12)C(=O)N[C@@H](Cc1c[nH]c2ccccc12)C(=O)N1CCC[C@H]1C(=O)N[C@@H](Cc1c[nH]c2ccccc12)C(=O)N[C@@H](CCCCN)C(=O)N[C@@H](CCCCN)C(N)=O` [ILPWKWPWWPWKK], the minimal inhibitory concentration (MIC) stood at 0.4 µM (≈ 0.74 µg/mL) in test [1] and 16 µM (≈ 29.6 µg/mL) in test [3].
For `CC[C@H](C)[C@H](NC(=O)[C@H](CC(C)C)NC(=O)[C@H](CCCCN)NC(=O)CNC(=O)[C@H](CC(C)C)NC(=O)[C@@H](NC(=O)[C@H](CCCCN)NC(=O)[C@H](CO)NC(=O)[C@H](Cc1c[nH]c2ccccc12)NC(=O)[C@H](CCCCN)NC(=O)CN)[C@@H](C)CC)C(=O)N[C@@H](CCCN=C(N)N)C(N)=O` [GKWSKILGKLIR], the MIC against Bacillus subtilis 168 turned out to be 1.7 µM (≈ 2.38 µg/mL); against Pseudomonas aeruginosa, 28.3 µM (≈ 39.6 µg/mL); in the test on Staphylococcus aureus it was 21.7 µM (≈ 30.3 µg/mL); in the test with Escherichia coli B it was 2.3 µM (≈ 3.21 µg/mL).
With `CC[C@H](C)[C@@H]1NC(=O)[C@H](CCCCN)NC(=O)[C@@H](NC(=O)[C@H](CCCCN)NC(=O)[C@H](CC(C)C)NC(=O)[C@@H](NC(=O)[C@H](CC(=O)O)NC(=O)[C@H](CC(C)C)NC(=O)[C@H](CC(C)C)NC(=O)[C@H](CCC(N)=O)NC(=O)CNC(=O)[C@H](C)NC(=O)[C@@H](NC(=O)[C@H](CCCCN)NC(=O)[C@H](CCCCN)NC(=O)[C@H](CC(C)C)NC(=O)CNC(=O)[C@H](CCC(=O)O)NC(=O)[C@H](CCCCN)NC(=O)[C@@H](NC(=O)[C@H](CO)NC(=O)[C@H](CC(=O)O)NC(=O)[C@H](CC(C)C)NC(=O)[C@H](CC(C)C)NC(=O)CN)C(C)C)C(C)C)[C@@H](C)O)CSSC[C@@H](C(=O)N[C@H](C(=O)N2CCC[C@H]2C(=O)N[C@@H](C)C(=O)O)[C@@H](C)O)NC(=O)CNC(=O)[C@H](CO)NC1=O` [GLLDSVKEGLKKVAGQLLDTLKCKISGCTPA], the MIC was determined as 3.92 µM (≈ 12.5 µg/mL) in [2], 7.84 µM (≈ 25 µg/mL) in the test on Bacillus subtilis, 1.98 µM (≈ 6.3 µg/mL) in test [3] and 1.98 µM (≈ 6.3 µg/mL) in test [4].
In the case of `CC[C@H](C)[C@H](NC(=O)[C@H](C)NC(=O)[C@H](CC(C)C)NC(=O)[C@H](CC(C)C)NC(=O)[C@H](CC(C)C)NC(=O)[C@H](C)N)C(=O)N[C@@H](CCCN=C(N)N)C(=O)N[C@@H](CCCCN)C(=O)N[C@@H](CCCN=C(N)N)C(N)=O` [ALLLAIRKR], the minimum inhibitory concentration (MIC) in the test on Escherichia coli was 5.7 µM (≈ 5.99 µg/mL); in the test on Pseudomonas aeruginosa, 3.8 µM (≈ 4 µg/mL); against Staphylococcus aureus MR, no less than 38 µM; against Staphylococcus aureus it was 3.8 µM (≈ 4 µg/mL).
As for `CC[C@H](C)[C@H](NC(=O)[C@H](CCCN=C(N)N)NC(=O)[C@H](Cc1c[nH]c2ccccc12)NC(=O)[C@H](CCCN=C(N)N)NC(=O)[C@@H](NC(=O)[C@H](CCCCN)NC(=O)[C@H](Cc1c[nH]c2ccccc12)NC(=O)[C@H](CCCN=C(N)N)NC(=O)[C@@H](NC(=O)[C@H](CCCN=C(N)N)NC(=O)[C@@H](N)Cc1c[nH]c2ccccc12)[C@@H](C)CC)[C@@H](C)O)C(=O)N[C@@H](CCCCN)C(N)=O` [WRIRWKTRWRIK], the minimum inhibitory concentration (MIC) in [8] came to 2 µM (≈ 3.57 µg/mL); against Acinetobacter baumannii, 2 µM (≈ 3.57 µg/mL); in the test on Escherichia coli, 2 µM (≈ 3.57 µg/mL); with Pseudomonas aeruginosa, 8 µM (≈ 14.3 µg/mL); in [9] it was 2 µM (≈ 3.57 µg/mL); in test [6], 2 µM (≈ 3.57 µg/mL). For the same compound, the minimal inhibitory concentration (MIC) in [3] came out at 4 µM (≈ 7.14 µg/mL); in the test on Escherichia coli UB1005 it was 2 µM (≈ 3.57 µg/mL); in test [10], 2 µM (≈ 3.57 µg/mL); against Staphylococcus aureus, 2 µM (≈ 3.57 µg/mL).
As to `CC[C@H](C)[C@H](NC(=O)[C@@H]1CCCN1C(=O)[C@@H](NC(=O)[C@@H](N)C(C)C)[C@@H](C)CC)C(=O)N[C@H](C(=O)N[C@@H](CO)C(=O)NCC(=O)N[C@@H](CC(C)C)C(=O)N[C@@H](CC(C)C)C(=O)N[C@@H](CO)C(=O)N[C@@H](CO)C(=O)N[C@@H](CC(C)C)C(=O)N[C@@H](CC(C)C)C(N)=O)C(C)C` [VIPIVSGLLSSLL], the MIC in test [3] amounted to 9.54 µM (≈ 12.5 µg/mL); in [4], 4.77 µM (≈ 6.25 µg/mL).
Take `CC[C@H](C)[C@H](NC(=O)[C@H](CCCCN)NC(=O)[C@H](C)NC(=O)[C@H](CC(C)C)NC(=O)[C@@H](NC(=O)[C@H](CCCCN)NC(=O)[C@H](CCCCN)NC(=O)[C@H](Cc1c[nH]c2ccccc12)NC(=O)[C@H](CC(N)=O)NC(=O)[C@@H](N)C(C)C)C(C)C)C(=O)N[C@H](C(=O)N[C@@H](CCCCN)C(=O)N[C@H](C(=O)N[C@@H](C)C(=O)N[C@@H](CCCCN)C(N)=O)C(C)C)[C@@H](C)CC` [VNWKKVLAKIIKVAK]: the MIC was 0.6 µM (≈ 1.04 µg/mL) in the test on Bacillus subtilis 168, 26.9 µM (≈ 46.7 µg/mL) with Pseudomonas aeruginosa, 7.2 µM (≈ 12.5 µg/mL) in the test on Staphylococcus aureus and 0.7 µM (≈ 1.22 µg/mL) in the test on Escherichia coli B.
Turning to `CC[C@H](C)[C@@H]1NC(=O)[C@H](CCCCN)NC(=O)[C@@H](NC(=O)[C@H](Cc2ccccc2)NC(=O)[C@H](CC(C)C)NC(=O)[C@H](CCCCN)NC(=O)[C@@H]2CCCN2C(=O)[C@H](CC(C)C)NC(=O)[C@H](Cc2ccccc2)NC(=O)[C@H](CC(N)=O)NC(=O)[C@H](C)NC(=O)[C@H](C)NC(=O)[C@H](CC(C)C)NC(=O)[C@H](CO)NC(=O)[C@@H](NC(=O)[C@H](C)NC(=O)[C@H](CC(C)C)NC(=O)[C@@H]2CCCN2C(=O)[C@H](CC(C)C)NC(=O)[C@@H](N)Cc2ccccc2)C(C)C)CSSC[C@@H](C(=O)O)NC(=O)[C@H](CCCCN)NC(=O)[C@H](CCCCN)NC(=O)[C@H]([C@@H](C)O)NC1=O` [FLPLAVSLAANFLPKLFCKITKKC], the MIC in test [2] is 2.81 µM (≈ 7.49 µg/mL); in test [3], 2.44 µM (≈ 6.5 µg/mL); in test [4], 2.06 µM (≈ 5.5 µg/mL); against Shigella dysenteriae, 0.825 µM (≈ 2.2 µg/mL).
